# From patent publication US20250319191A1, “PHARMACEUTICAL COMPOSITION COMPRISING HYALURONIC ACID COMPLEX FOR PREVENTION OR TREATMENT OF SKIN DISEASE” (AJOU UNIVERSITY INDUSTRY-ACADEMIC COOPERATION FOUNDATION, priority 2021, published 2025)
# Target: recombinant TLR4 (Homo sapiens, UniProt O00206)
# Assay: Interaction with TLR4 by surface plasmon resonance
# Type: binding
# Details: 0-800 μg/ml, 10 μl/min, 120 seconds
# Text: In order to immobilize a target receptor on an assay chip, the receptor was immobilized on the chip by flowing recombinant TLR4 while flowing an EDC/NHS solvent. Thereafter, ethanolamine was flowed to remove weakly immobilized or non-immobilized receptor on the chip.
# Chain of recombinant TLR4 (O00206 24-839, species assumed): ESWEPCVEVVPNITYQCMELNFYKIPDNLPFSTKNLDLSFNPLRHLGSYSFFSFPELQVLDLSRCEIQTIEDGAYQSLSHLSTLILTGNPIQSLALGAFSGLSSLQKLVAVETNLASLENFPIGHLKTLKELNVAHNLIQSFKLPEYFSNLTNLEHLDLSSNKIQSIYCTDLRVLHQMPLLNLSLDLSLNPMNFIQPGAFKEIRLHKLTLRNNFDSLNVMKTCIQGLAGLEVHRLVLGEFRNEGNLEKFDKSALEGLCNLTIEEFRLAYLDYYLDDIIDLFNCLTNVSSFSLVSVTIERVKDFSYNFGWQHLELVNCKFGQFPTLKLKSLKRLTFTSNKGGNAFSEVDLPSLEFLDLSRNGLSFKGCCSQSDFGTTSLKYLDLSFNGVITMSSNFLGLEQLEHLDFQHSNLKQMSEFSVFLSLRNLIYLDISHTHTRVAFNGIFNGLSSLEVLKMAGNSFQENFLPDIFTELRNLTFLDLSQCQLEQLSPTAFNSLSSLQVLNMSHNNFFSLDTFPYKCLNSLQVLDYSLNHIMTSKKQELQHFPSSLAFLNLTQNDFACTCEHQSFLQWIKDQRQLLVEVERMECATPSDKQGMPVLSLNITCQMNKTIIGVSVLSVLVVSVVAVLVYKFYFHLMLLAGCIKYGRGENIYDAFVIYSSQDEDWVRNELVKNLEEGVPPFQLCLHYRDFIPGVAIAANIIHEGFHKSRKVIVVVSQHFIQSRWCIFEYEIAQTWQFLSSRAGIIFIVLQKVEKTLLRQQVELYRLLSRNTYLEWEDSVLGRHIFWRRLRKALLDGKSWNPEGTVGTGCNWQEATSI
substance,measurement,value
hyaluronic acid [10 kDa free HA],change in response unit (RU) value,the increase in RU value identified in the HACN group was not observed
